Measured values reported in the supplement of paper PMC10307832.

Experiments:
Assay in all cases: relative viability (nuclei count vs DMSO), 5 days (fraction); higher = more cells survive
[1] = compound: CCN1C(=O)C2=CC(=C(N=C2N(C1=O)C3CC3)N)C(=O)N
Method in brief: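 Lung cancer cell lines in 1536-well plates were exposed by pinning to five library-drug doses (not always all listed) √10 apart, following an overnight hold at 37 °C. MetaXpress counted Hoechst-stained nuclei from 4× images taken after 5 days without medium change. Viability is the median ratio of treated-well to vehicle-well nuclei across plates. Plates required control CV below 25% and at least one doubling.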

[2] = compound: CCN1C(=O)C2=CC(=C(N=C2N(C1=O)C3CC3)N)C(=O)N + C[C@@H](Oc1cc(-c2cnn(C3CCNCC3)c2)cnc1N)c1c(Cl)ccc(F)c1Cl [Crizotinib] (partner 1 µM)
Method in brief: (§1)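 Lung cancer cell lines in 1536-well plates got either a single drug or a fixed anchor-drug dose together with five library-drug doses (not always all listed) in √10 steps, by pin tool, on the day after seeding. Nuclei were counted after 5 days, and relative viability is the treated-to-vehicle ratio of nuclei counts. Values are medians of duplicate plates.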

[3] = compound: CCN1C(=O)C2=CC(=C(N=C2N(C1=O)C3CC3)N)C(=O)N + O=C(CCCCCCC(=O)Nc1ccccc1)NO [Vorinostat] (partner 1 µM)
Method in brief: as §1

[4] = compound: CCN1C(=O)C2=CC(=C(N=C2N(C1=O)C3CC3)N)C(=O)N + CCNC(=O)c1noc(-c2cc(C(C)C)c(O)cc2O)c1-c1ccc(CN2CCOCC2)cc1 [Luminespib] (partner 0.01 µM)
Method in brief: as §1

[5] = compound: CCN1C(=O)C2=CC(=C(N=C2N(C1=O)C3CC3)N)C(=O)N + C[C@]1(O)C[C@@H](c2nc(-c3ccc4ccc(-c5ccccc5)nc4c3)c3c(N)nccn32)C1 [Linsitinib] (partner 1 µM)
Method in brief: as §1

Row | Cell Line | relative viability ([1]; 0.253 µM) | relative viability ([1]; 0.8 µM) | relative viability ([1]; 2.53 µM) | relative viability ([1]; 8 µM) | relative viability ([2]; first compound 0.253 µM) | relative viability ([2]; first compound 0.8 µM) | relative viability ([2]; first compound 2.53 µM) | relative viability ([2]; first compound 8 µM) | relative viability ([3]; first compound 0.253 µM) | relative viability ([3]; first compound 0.8 µM) | relative viability ([3]; first compound 2.53 µM) | relative viability ([3]; first compound 8 µM) | relative viability ([4]; first compound 0.253 µM) | relative viability ([4]; first compound 0.8 µM) | relative viability ([4]; first compound 2.53 µM) | relative viability ([4]; first compound 8 µM) | relative viability ([5]; first compound 0.253 µM) | relative viability ([5]; first compound 0.8 µM) | relative viability ([5]; first compound 2.53 µM) | relative viability ([5]; first compound 8 µM)
1 | ChaGo-K-1 | 1.12 | 0.949 | 0.973 | 0.924 | 1.14 | 1.13 | 1.14 | 1.41 | 0.793 | 0.764 | 0.72 | 0.748 | 0.541 | 0.508 | 0.636 | 0.53 | – | – | – | –
2 | EKVX | 1.01 | 0.955 | 0.959 | 0.913 | 1.07 | 1.14 | 0.837 | 1.05 | 0.881 | 0.589 | 0.716 | 0.594 | 0.94 | 0.952 | 0.772 | 0.722 | 1.03 | 1.03 | 0.934 | 0.998
3 | EMC-BAC-2 | 1.39 | – | 1.14 | 1.07 | 0.841 | 0.734 | 0.713 | 0.855 | 0.992 | – | 0.782 | 0.67 | 1.29 | 1.08 | 1.03 | 1.19 | 0.848 | 0.837 | 0.754 | 0.888
4 | EPLC-272H | 0.891 | 0.863 | 0.999 | 1.09 | 0.997 | 0.998 | 0.906 | 0.988 | – | 0.538 | 0.411 | 0.477 | 0.253 | 0.227 | 0.465 | 0.445 | 1.18 | 1.28 | 1.37 | 1.36
5 | H3255 | 0.995 | 0.906 | 1.01 | 0.929 | 0.805 | 0.936 | 0.885 | 0.965 | 0.838 | 0.688 | 0.819 | 0.831 | 0.834 | 0.773 | 0.883 | 0.932 | 0.879 | 0.908 | 0.835 | 1.03
6 | HARA | 0.975 | 0.927 | 0.947 | 0.918 | 1.1 | 1.04 | 0.946 | 1.16 | 0.563 | 0.5 | 0.57 | 0.552 | 0.706 | 0.671 | 0.843 | 0.929 | 0.971 | 0.942 | 0.829 | 0.94
7 | HCC-15 | 0.943 | 1.02 | 0.994 | 1.03 | 0.789 | 0.829 | 0.909 | 0.872 | 0.885 | 0.785 | 0.869 | 0.815 | 0.231 | 0.7 | 0.395 | 0.452 | 0.867 | 0.908 | 0.879 | 0.913
8 | HCC-44 | 1.01 | 0.958 | 1.03 | 0.972 | 0.844 | 0.826 | 0.772 | 0.851 | 1.13 | 1.05 | 1.06 | 1.04 | 0.934 | 0.905 | 1.17 | 1.04 | 0.693 | 0.634 | 0.69 | 0.641
